In US7964560B2, “Hepatitis C virus inhibitors” (Bristol-Myers Squibb Company, priority 2008, dated 2011):
Where two headings read alike, the source gives them in different places.

Columns and labels:
[1] = target: T1, human neutrophil elastase (HNE) (Homo sapiens, UniProt P08246); assay: Specificity assay, human neutrophil elastase; assay type: biochemical; settings: read-out: HLE (specificity assay IC50)
T1 construct: purchased Sigma, EMDbiosciences
T1 sequence (P08246 30-267): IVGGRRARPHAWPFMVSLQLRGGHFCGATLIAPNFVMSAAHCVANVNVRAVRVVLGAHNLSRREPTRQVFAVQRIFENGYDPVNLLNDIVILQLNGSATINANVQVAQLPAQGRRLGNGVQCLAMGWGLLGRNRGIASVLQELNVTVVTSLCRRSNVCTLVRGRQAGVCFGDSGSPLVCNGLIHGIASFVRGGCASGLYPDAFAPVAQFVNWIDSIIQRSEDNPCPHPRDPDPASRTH
Experimental: The specificities of compounds of the present disclosure were determined against a variety of serine proteases: human neutrophil elastase (HNE), porcine pancreatic elastase (PPE) and human pancreatic chymotrypsin and one cysteine protease: human liver cathepsin B. In all cases a 96-well plate format protocol using a fluorometric Amino-Methyl-Coumarin (AMC) substrate specific for each enzyme was used as described previously (PCT Patent Application No. WO 00/09543) with some modifications to the serine protease assays. All enzymes were purchased from Sigma, EMDbiosciences while the substrates were from Bachem, Sigma and EMDbiosciences.
Compound concentrations varied from 100 to 0.4 μM depending on their potency. The enzyme assays were each initiated by addition of substrate to enzyme-inhibitor pre-incubated for 10 min at room temperature and hydrolysis to 15% conversion as measured on CYTOFLUOR®.
50 mM Tris-HCl, pH 8.0, 50 mM NaCl, 0.1 mM […], 3% DMSO, 0.02% Tween-20, 5 μM succ-AAPV-AMC and 20 nM HNE or 8 nM PPE;
The percentage of inhibition was calculated using the formula: [1−((UVinh−UVblank)/(UVctl−UVblank))]×100
A non-linear curve fit was applied to the inhibition-concentration data, and the 50% effective concentration (IC50) was calculated by the use of Excel XLfit software.

[2] = tested on: HCV replicon (Renilla luciferase reporter) in HUH-7 cells; assay: HCV replicon luciferase reporter assay; assay type: cell-based, Hepatitis C virus (strain 1b); settings: Huh-7, 96 h, 4 days
[3] = tested on: HCV replicon in HUH-7 cells; assay: HCV replicon FRET assay; assay type: cell-based, Hepatitis C virus (strain 1b); settings: Hepatitis C virus
Description: An HCV replicon whole cell system was established as described by Lohmann, V. et al., Science, 285(5424):110-113 (1999). This system enabled us to evaluate the effects of our HCV Protease compounds on HCV RNA replication. Briefly, using the HCV strain 1b sequence described in the Lohmann paper (Accession number: AJ238799), an HCV cDNA was synthesized by Operon Technologies, Inc. (Alameda, Calif.), and the full-length replicon was then assembled in plasmid pGem9zf(+) (Promega, Madison, Wis.) using standard molecular biology techniques. The replicon consists of (i) the HCV 5′ UTR fused to the first 12 amino acids of the capsid protein, (ii) the neomycin phosphotransferase gene (neo), (iii) the IRES from encephalomyocarditis virus (EMCV), and (iv) HCV NS3 to NS5B genes and the HCV 3′ UTR. Plasmid DNAs were linearized with ScaI and RNA transcripts were synthesized in vitro using the T7 MegaScript transcription kit (Ambion, Austin, Tex.) according to manufacturer's directions. In vitro transcripts of the cDNA were transfected into the human hepatoma cell line, HUH-7. […] Resulting cell lines were characterized for positive and negative strand RNA production and protein production over time.
The HCV replicon FRET assay was developed to monitor the inhibitory effects of compounds described in the disclosure on HCV viral replication. HUH-7 cells, constitutively expressing the HCV replicon, were grown in Dulbecco's Modified Eagle Media (DMEM) (Gibco-BRL) containing 10% Fetal calf serum (FCS) (Sigma) and 1 mg/ml G418 (Gibco-BRL). Cells were seeded the night before (1.5×10^4 cells/well) in 96-well tissue-culture sterile plates. Compound and no compound controls were prepared in DMEM containing 4% FCS, 1:100 Penicillin/Streptomysin (Gibco-BRL), 1:100 L-glutamine and 5% DMSO in the dilution plate (0.5% DMSO final concentration in the assay). Compound/DMSO mixes were added to the cells and incubated for 4 days at 37° C. After 4 days, cells were first assessed for cytotoxicity using alamar Blue (Trek Diagnostic Systems) for a CC50 reading. The toxicity of compound (CC50) was determined by adding 1/10th volume of alamar Blue to the media incubating the cells. After 4 h, the fluorescence signal from each well was read, with an excitation wavelength at 530 nm and an emission wavelength of 580 nm, using the CYTOFLUOR® Series 4000 (Perspective Biosystems). Plates were then rinsed thoroughly with Phosphate-Buffered Saline (PBS) (3 times 150 μl). The cells were lysed with 25 μl of a lysis assay reagent containing an HCV protease substrate (5× cell Luciferase cell culture lysis reagent (PROMEGA® #E153A) diluted to 1× with distilled water, NaCl added to 150 mM final, the FRET peptide substrate (as described for the enzyme assay above) diluted to 10 μM final from a 2 mM stock in 100% DMSO. The plate was then placed into the CYTOFLUOR® 4000 instrument which had been set to 340 nm excitation/490 nm emission, automatic mode for 21 cycles and the plate read in a kinetic mode. EC50 determinations were carried out as described for the IC50 determinations.

C=C[C@@H]1C[C@]1(NC(=O)[C@@H]1C[C@@](SCCCC)(c2ccc(-c3ccccc3)cc2)CN1C(=O)[C@@H](NC(=O)OC(C)(C)C)C(C)(C)C)C(=O)NS(=O)(=O)C1CC1 [Example 1, tert-butyl (S)-1-((2S,4R)-4-(biphenyl-4-yl)-4-(butylthio)-2-((1R,2S)-1-(cyclopropylsulfonylcarbamoyl)-2-vinylcyclopropylcarbamoyl)pyrrolidin-1-yl)-3,3-dimethyl-1-oxobutan-2-ylcarbamate]
IC50 [1]: > 12100 nM | EC50 [2]: 6 nM | EC50 ([3]; 96 h, HUH-7 replicon cells, 4 days, read-out: EC50 value in the replicon FRET assay): 7.3 nM | EC50 ([3]; Huh-7): 7.2 to 22 nM
